The source of these data is patent US20260085034A1, “N-(BENZHYDRYL)CYCLOALKYLCARBOXAMIDE DERIVATIVES AS INHIBITORS OF GLYCOGEN SYNTHASE 1 (GYS1) AND METHODS OF USE THEREOF” (Maze Therapeutics, Inc., priority 2022, published 2026).

Each structure is given as a SMILES string.

In this test the test system is glycogen synthesis in HeLa cells (hGYS1). Description: GYS1 cell based assay (glycogen digestion, Glucose-glo). Particulars: Homo sapiens, 24 h incubation, 20 mM glucose, geometric mean of at least 2 runs, read-out: Cellular IC50. The text has this:
The GYS1 cell based assay is a bioluminescent assay that quantifies the glucose resulting from glycogen digestion; the quantified glucose is an indirect measure of GYS1 glycogen synthesis. Newly synthesized glycogen is digested using Glucoamylase; the resulting glucose is quantified by using the Glucose-glo assay kit from Promega. Glucose-glo works by coupling glucose oxidation and NADH production with a bioluminescent system that is activated with NADH. Glucose is oxidized by Glucose dehydrogenase and the reaction reduces NAD+ to NADH; NADH activates Reductase which reduces a pro-luciferin Reductase Substrate to luciferin. Luciferin is detected in a luciferase reaction using Ultra-Glo rLuciferase and ATP, and the luminesce produced is proportional to the glucose in the sample. The luminescence is measured as a single point read in a plate reader.
Compounds that inhibit the hGYS1 enzyme and, subsequently, the glycogen synthesis in cells, were tested using assay ready plates (white, clear bottom 384 well plates) in a final DMSO reaction volume of 1% DMSO. Compounds in the assay ready plates were mixed with media with no additives, except for 20 mM glucose prior to cell addition. HeLa cells were starved in media with no additives, except for 1× Glutamax for 24 h. Starved HeLa cells were plated, in a 1:1 ratio to the media in the assay ready plate and incubated for 24 h at 37° C. and 5% CO2. Cells were washed in 1×PBS buffer and lysed in lysis buffer containing 50% 1×PBS and 25% 0.3 N HCl of the final volume in the well or reaction volume; cells were incubated with lysis buffer for 10 minutes and quenched with the remaining 25% of the reaction volume that consisted of 450 mM Tris pH 8.0. Lysates were mixed in a 1:1 ratio with Glucoamylase in 100 mM Sodium Acetate buffer, pH 5.3; the mixture was incubated for 1 h at 37° C. The digested lysate was mixed in a 1:1 ratio with Glucose-glo detection mixture as per vendor recommendations (Luciferase detection buffer, Reductase, Reductase substrate, Glucose dehydrogenase, and NAD) in read-out plates (solid white 384-well plates) and incubated for 1 h at RT. The plates were read using a plate reader with luminescence capabilities. Each compound concentration Relative Luminescence Unit (RLU) was averaged and normalized to the average RLU of the positive and negative controls to obtain a percentage inhibition. The normalized data vs. concentration was plotted; to determine the half-maximal concentration (IC50), the Levenberg-Marquardt algorithm was used to fit a Hill equation to the dose response data.
The results are shown in Table 4 below, which reports the IC50 of each compound. Unless otherwise specified, IC50 values are reported as the geometric mean of at least 2 assay runs on separate days. As shown in the table below, the compounds of the present invention are potent inhibitors of human GYS1. […] Each run represents the average of a technical replicate, where each compound was assayed twice in the same plate.

Usually IC50 stands for the concentration needed to halve the response being measured.

With `CC(C)c1ccc([C@@H](NC(=O)[C@H]2C[C@@H]2F)c2ccn[nH]2)cc1F` (single isomer, unassigned) [compound 11], the concentration for half-maximal inhibition (IC50) was found to be 3.28 µM.
